Laboratory results: patent publication US6808892B1, “Method for identifying inhibitors of IPC synthase” (AstraZeneca AB, priority 1998, dated 2004)
*1 amine or outer side, *2 acyl side, *3 side chain or, on linkers, in order; H or OH if unused. Where a SMILES comes first, the peptide text is derived from it. [ ]: non-standard residue; d: D form. X1 = CC[C@@H](C)[C@@H](O[*:1])C(=O)[*:2]; NMeVal(β-OH) = CN[C@H](C(=O)O)C(C)(C)O; NMeF = CN[C@@H](Cc1ccccc1)C(=O)O; aIle = CC[C@@H](C)[C@H](N)C(=O)O; NMeV = CN[C@H](C(=O)O)C(C)C

Tested on: strain lcb1::kanMX, pNS149
Test: IPC synthase screen: growth inhibition of the engineered yeast strain with or without added phytosphingosine
Assay type: cell-based, S. cerevisiae
Excerpt: Therefore in a first aspect of the present invention we provide a screening assay for identifying a selective IPC synthase inhibitor which assay comprises contacting a test compound with engineered cells whose capability to synthesize sphingolipids depends on the addition of exogenous phytosphingosine and which are capable of sustained growth via compensatory phospholipids, adding phytosphingosine, and determining IPC synthase inhibition by the test compound by reference to any cell growth inhibition.
The utility of the lcb1::kanMX pNS149 strain to identify inhibitors of IPC synthase was evaluated using aureobasidinA as a test compound. The lcb1::kanMX pNS149 strain is a further independent aspect of the invention.
Inhibition of growth by aureobasidinA in strain lcb1::kanMX, pNS149 with added phytosphingosine.
Inhibition of growth by aureobasidinA in strain lcb1::kanMX, pNS149 without added phytosphingosine.

Compound: CC[C@@H](C)[C@@H]1NC(=O)[C@@H]2CCCN2C(=O)[C@H](Cc2ccccc2)N(C)C(=O)[C@H](Cc2ccccc2)NC(=O)[C@H](C(C)C)N(C)C(=O)[C@@H]([C@H](C)CC)OC(=O)[C@H](C(C)(C)O)N(C)C(=O)[C@H](CC(C)C)NC(=O)[C@H](C(C)C)N(C)C1=O [aureobasidinA] (cyclo(F[NMeF]P[aIle][NMeV]L[NMeVal(β-OH)][X1][NMeV]))
- Inhibition of growth (pNS149, with added phytosphingosine (FIG. 1a)): very pronounced
- Inhibition of growth (pNS149, without added phytosphingosine (FIG. 1b)): absent
